Where a name gives a salt, the structure may show the parent alone.
Key:
Male Swiss-Webster mice [1] = test: Analgesic efficacy: sensory block, vocalization response to cutaneous electrical stimulation after subcutaneous injection; assay type: in vivo; settings: 8 mice
Experimental: All experiments were approved by the Institutional Animal Care and Use Committee. Male Swiss-Webster mice weighing 26+3 g (mean+SD) were used. Animals had free access to food and water, and were maintained on 12-hour dark-light cycle. Prior to testing, the hair overlying the abdomen was shaved. Analgesia was assessed using response to cutaneous electrical stimulation. A current generator (model S48, Grass Instruments, Quincy, Mass.) coupled to a constant current unit (model PSIU6F, Grass Instruments, Quincy, Mass.) was used. The current was delivered to the skin surface by touching it gently with two electrodes fashioned from #25 g needles. The vocalization threshold (the current required to produce a vocalization response) was assessed prior to injection of study solutions. […] To determine analgesic duration, mice were injected with liposomal BUP compositions having 0.5 wt % and 3.5 wt % bupivacaine, respectively, formed by dilution (as necessary of formulation 3, above. Free BUP (0.5%), hyperosmotic saline (580 mM), or drug-free liposomes were used as controls. For all groups, […] of test solution was injected subcutaneously using a #25 g needle in 8 mice. After injection, sensory block was assessed at 5, 15, 30 minutes and then at 1, 1.5, 2, 3, 4.5, 6, 9, 12, 14, 16, 17, and 19 hours. Failure to vocalize in response to stimulation with threshold current was taken as analgesia. […]

Male Swiss-Webster mice [2] = settings: mouse, in vivo
[3] = Tissue BUP post-administration: drug remaining at the site of injection (HPLC of excised tissue); assay type: in vivo; settings: four hours after injection, mice, subcutaneous
Experimental: In a separate group of mice, the amount of drug remaining at the site of injection after administration of 0.5% and 3.5% liposomal BUP (formulation 3) or 0.5% free BUP was determined. Three animals were sacrificed at 0, 0.25, 0.5, 1, 2, 4, and 8 hours after injections of all drug formulations and also at 16, 24, 48 and 96 hours after injection of the liposomal formulations. After sacrifice, a 1-cm2 circular tissue section including the entire area of injection, and extending to the peritoneum, was excised. The tissue was homogenized in 1 ml of isopropanol for 1 min, and then centrifuged at 16,000×G (Eppendorf Centrifuge 5417C, Engelsdorf, Germany). The supernatant was diluted 1:100 in isopropanol, and BUP concentration was determined using HPLC. In vivo release kinetics were done in triplicate. Results are presented in FIG. 2, where the absolute amounts remaining are expressed as mean±SD.

Question: Which “time at which analgesia was exhibited” value (Male Swiss-Webster mice [1]) does the source give for `CCCCN1CCCCC1C(=O)Nc1c(C)cccc1C` (centres unmarked) [0.5% free BUP, Bupivacaine hydrochloride] here?
Answer: 30 min

Question: What about the “time at which analgesia was not detected (regressed in all animals)” value (Male Swiss-Webster mice [1]) of the same compound?
Answer: 2 h

Question: And the systemic toxic effects (Male Swiss-Webster mice [2])?
Answer: produced toxicity

Question: What about the “amount remaining at the site” value [3] of the same compound?
Answer: 8 mg

Question: And the “injected dose remaining at the site” value [3]?
Answer: 1%
